Data published in patent publication US9920025B2, “Antibiotic” (Koninklijke Nederlandse Akademie Van Wetenschappen, priority 2014, dated 2018).

How the values were obtained:
[1] = system: Acinetobacter calcoaceticus (15A600), NCCB 100514; assay: Antibiotic activity of purified fraction (broth growth inhibition, serial dilution); assay type: cell-based; conditions: Gram−, no effect at highest concentration
Procedure: (§1) Preferably the compound of the invention has antimicrobial or antibiotic activity, more preferably antibacterial activity. Antimicrobial or antibacterial activity can be assessed by a suitable assay known by the person skilled in the art, preferably by a growth inhibition assay as exemplified herein. Preferably growth inhibition is assessed by culturing bacteria are cultured in the presence or absence of the antibacterial compound o/n at 37° C. in Luria Broth (LB). The read-out of the assay is by eye, if the bacteria have visibly grown, the sample is scored as non-inhibitory. If the broth is completely clear, the sample is scored as inhibitory.
(§2) Bacteria are cultured o/n at 37° C. in Luria Broth (LB). This culture is diluted 100× in fresh LB. This fresh culture is then used to test the filtrate and extract. The filtrate was tested in serial dilutions starting at 2× and further diluted with a factor 2 until 256×. The extract was tested starting at 10× dilution and further diluted with a factor 2 until 1280×. The bacteria with filtrate or extract were incubated o/n at 37° C. The read-out of the assay is by eye, if the bacteria have visibly grown, the sample is scored as non-inhibitory. If the broth is completely clear, the sample is scored as inhibitory.
(§3) The 95 fractions collected were pooled per 6 and the pooled fractions were dried in a speed-vac o/n. The fraction residues were dissolved in 1 ml 5% DMSO and tested on E. faecium (15A623) in serial dilutions starting at 2×. […] 1 ml of each fraction was dried in a speed-vac o/n and each fraction residue was dissolved in 1 ml 5% DMSO to be tested on E. faecium. […] The fraction was then tested on 19 additional strains of bacteria (Table 3).

[2] = system: Enterococcus faecium(15A623); assay: as above; assay type: cell-based
Procedure: as §1, §2, §3

[3] = system: Enterococcus faecium(16D030); assay: as above; assay type: cell-based; conditions: Gram+
Procedure: as §1, §2, §3

Escherichia coli (CP131) = assay: as above; assay type: cell-based; conditions: ESBL SHV-3, Gram−, no effect at highest concentration
Procedure: as §1, §2, §3

Escherichia coli (JS004) = assay: as above; assay type: cell-based; conditions: ESBL TEM-3, Gram−, no effect at highest concentration
Procedure: as §1, §2, §3

Escherichia coli (JS203) = assay: as above; assay type: cell-based; conditions: ESBL CTX-M-1, Gram−, no effect at highest concentration
Procedure: as §1, §2, §3

[4] = system: Klebsiella pneumonia (CP14); assay: as above; assay type: cell-based; conditions: ESBL TEM-18, Gram−, no effect at highest concentration
Procedure: as §1, §2, §3

[5] = system: Klebsiella pneumonia (JS006); assay: as above; assay type: cell-based; conditions: ESBL SHV-18, Gram−, no effect at highest concentration
Procedure: as §1, §2, §3

[6] = system: Klebsiella pneumonia (JS264); assay: as above; assay type: cell-based; conditions: ESBL CTX-M-15, Gram−, no effect at highest concentration
Procedure: as §1, §2, §3

[7] = system: Klebsiella pneumoniae (MR44); assay: as above; assay type: cell-based; conditions: Gram−, no effect at highest concentration
Procedure: as §1, §2, §3

[8] = system: Listeria monocytogenes (41-4a); assay: as above; assay type: cell-based; conditions: Gram+
Procedure: as §1, §2, §3

[9] = system: Methicillin-resistant Staphylococcus aureus (MRSA) ST8: USA300 (S1474) FPR3757, NARSA collection NRS482; assay: as above; assay type: cell-based; conditions: Gram+
Procedure: as §1, §2, §3

[10] = system: Methicillin-sensitive Staphylococcus aureus 476 (S0101), ATCC BAA-1721; assay: as above; assay type: cell-based; conditions: Gram+
Procedure: as §1, §2, §3

[11] = system: Pseudomonas aeruginosa (04A191), NCCB 100515; assay: as above; assay type: cell-based; conditions: Gram−, no effect at highest concentration
Procedure: as §1, §2, §3

[12] = system: Staphylococcus epidermidis (08A1071); assay: as above; assay type: cell-based; conditions: Gram+
Procedure: as §1, §2, §3

[13] = system: Stenotrophomonas maltophilia (20A226), NCCB 100516; assay: as above; assay type: cell-based; conditions: Gram−, no effect at highest concentration
Procedure: as §1, §2, §3

[14] = system: Streptococcus group A (23M092); assay: as above; assay type: cell-based; conditions: Gram+
Procedure: as §1, §2, §3

[15] = system: Streptococcus group B (05A396); assay: as above; assay type: cell-based; conditions: Gram+
Procedure: as §1, §2, §3

[16] = system: Streptococcus pneumoniae (14B186); assay: as above; assay type: cell-based; conditions: Gram+
Procedure: as §1, §2, §3

Listeria monocytogenes = assay: Growth kinetics (time-kill curves); assay type: cell-based; conditions: 50, 100 and 200 μg/ml, 37° C., 24 hrs
Procedure: (§4) Also preferred is a growth kinetic assay the effect of the compound of interest is assessed in time on growth of bacterial isolates on blood-agar plates, as known by the person skilled in the art. In brief, liquid cultures are inoculated in Mueller-Hinton Broth and incubated at 37° C. o/n. The o/n cultures were used to prepare a 0.05-0.1 McFarland suspension in Mueller Hinton Broth, which are incubated at 37° C. until 0.5 McFarland ([…]). These suspensions are used to inoculate 5 ml pre-warmed Mueller-Hinton Broth with approximately 1.5×10^5 CFU/ml with the appropriate antibiotic compound of interest. Directly after addition of the bacterial suspension a 0.25 ml sample is taken. Further 0.25 ml samples are taken after 1, 3, 6 and 24 hrs, which are added to 2.25 ml physiological salt solution. This suspension is used to prepare plates for CFU determination. The lower limit of detection is 40 CFU/ml. Bacterial suspension without antibiotics is preferably checked for normal growth after 24 hrs. A compound is understood herein as having antibacterial activity if at least 3 log10 reduction of CFU in the growth kinetics assay as passed after 1, 3, 6 or preferably 24 hours.
(§5) After elucidating the structure, we studied the growth kinetics of several Gram+bacteria in the presence of 50, 100 and 200 μg/ml of the compound of formula (I), in order to determine whether the compound was bacteriostatic or bactericidal. The bacteria were cultured at 37° C. for 24 hrs (with the exception of Streptococcus Pneumoniae which was cultured until 6 hrs) in the presence of the compound and samples were taken for colony counting at 0, 1, 3, 6 and 24 hrs.
(§6) More specifically, bacterial isolates as indicated below were grown on blood-agar plates. Liquid cultures were inoculated in Mueller-Hinton Broth and incubated at 37° C. o/n. The o/n cultures were used to prepare a 0.05-0.1 McFarland suspension in Mueller Hinton Broth, which was incubated at 37° C. until 0.5 McFarland ([…]). These suspensions were used to inoculate 5 ml pre-warmed Mueller-Hinton Broth with approximately 1.5×10^5 CFU/ml with the appropriate antibiotic and antibiotic concentration. Directly after addition of the bacterial suspension a 0.25 ml sample was taken. Further 0.25 ml samples were taken after 1, 3, 6 and 24 hrs. Samples were added to 2.25 ml physiological salt solution. This suspension was used to prepare plates for CFU determination. The lower limit of detection was 40 CFU/ml. Bacterial suspension without antibiotics was checked for normal growth after 24 hrs. Efficient bactericidal activity is defined as at least 3 log10 reduction of CFU.
(§7) The bacteria tested were two strains of Enterococcus faecium (FIGS. 2A and 2B), MRSA USA300 (FIG. 2C), MSSA (FIG. 2D), Staphylococcus epidermidis (FIG. 2E), Listeria monocytogenes (FIG. 2F), Streptococcus group A (FIG. 2G), Streptococcus group B (FIG. 2H) and Streptococcus pneumoniae (FIG. 2I).

[17] = system: Staphylococcus epidermidis; assay: Growth kinetics (time-kill curves); assay type: cell-based; conditions: 50, 100 and 200 μg/ml, 37° C., 24 hrs
Procedure: as §4, §5, §6, §7

Streptococcus Group A = assay: Growth kinetics (time-kill curves); assay type: cell-based; conditions: 50, 100 and 200 μg/ml, 37° C., 24 hrs
Procedure: as §4, §5, §6, §7

Streptococcus Group B = assay: Growth kinetics (time-kill curves); assay type: cell-based; conditions: 50, 100 and 200 μg/ml, 37° C., 24 hrs, bactericidal = at least 3 log10 reduction of CFU
Procedure: as §4, §5, §6, §7

Streptococcus pneumoniae = assay: Growth kinetics (time-kill curves); assay type: cell-based; conditions: 50, 100 and 200 μg/ml, 37° C., cultured until 6 hrs
Procedure: as §4, §5, §6, §7

E. faecium (15A623) = assay: Growth kinetics (time-kill curves); assay type: cell-based, Enterococcus faecium; conditions: 50, 100 and 200 μg/ml, 37° C., 24 hrs
Procedure: as §4, with “hours. […]” for “hours.”

E. faecium (16D030) = assay: Growth kinetics (time-kill curves); assay type: cell-based, Enterococcus faecium; conditions: 50, 100 and 200 μg/ml, 37° C., 24 hrs
Procedure: as §4, with “hours. […]” for “hours.”

MRSA USA300 = assay: Growth kinetics (time-kill curves); assay type: cell-based, Staphylococcus aureus; conditions: 50, 100 and 200 μg/ml, 37° C., 24 hrs
Procedure: as §4, with “hours. […]” for “hours.”

MSSA = assay: Growth kinetics (time-kill curves); assay type: cell-based, Staphylococcus aureus; conditions: 50, 100 and 200 μg/ml, 37° C., 24 hrs
Procedure: as §4, with “hours. […]” for “hours.”

CC1CCC(=O)/C=C/C(=O)O1 (stereo not drawn) [compound of formula (I), (E)-8-methyl-7,8-dihydro-2H-oxocine-2,5(6H)-dione]
Minimal concentration for antibacterial activity [1]: No effect at 1.5 g/l | inhibition of bacterial growth by HPLC fractions ([2]; E. faecium (15A623), residue in 1 ml 5% DMSO, serial dilutions starting at 2×): inhibited bacterial growth | Minimal concentration for antibacterial activity ([2]; Enterococcus faecium(15A623), Gram+): 37.5 mg/1 | activity against E. faecium (15A623) ([2]; compound of formula (I) and hydrogenated derivative at similar concentrations): active | Minimal concentration for antibacterial activity [3]: 75.0 mg/1 | Minimal concentration for antibacterial activity (Escherichia coli (CP131)): No effect at 1.5 g/l | Minimal concentration for antibacterial activity (Escherichia coli (JS004)): No effect at 1.5 g/l | Minimal concentration for antibacterial activity (Escherichia coli (JS203)): No effect at 1.5 g/l | Minimal concentration for antibacterial activity [4]: No effect at 1.5 g/l | Minimal concentration for antibacterial activity [5]: No effect at 1.5 g/l | Minimal concentration for antibacterial activity [6]: No effect at 1.5 g/l | Minimal concentration for antibacterial activity [7]: No effect at 1.5 g/l | Minimal concentration for antibacterial activity [8]: 75.0 mg/1 | Minimal concentration for antibacterial activity [9]: 18.8 mg/L | Minimal concentration for antibacterial activity [10]: 4.69 mg/L | Minimal concentration for antibacterial activity [11]: No effect at 1.5 g/l | Minimal concentration for antibacterial activity [12]: 18.8 mg/L | Minimal concentration for antibacterial activity [13]: No effect at 1.5 g/l | Minimal concentration for antibacterial activity [14]: 75.0 mg/1 | Minimal concentration for antibacterial activity [15]: 75.0 mg/1 | Minimal concentration for antibacterial activity [16]: 75.0 mg/1 | bacteriostatic or bactericidal (time-kill curves) (Listeria monocytogenes): bactericidal | bacteriostatic or bactericidal (time-kill curves) [17]: bactericidal | bacteriostatic or bactericidal (time-kill curves) (Streptococcus Group A): bactericidal | bacteriostatic or bactericidal (time-kill curves) (Streptococcus Group B): bacteriostatic | bacteriostatic or bactericidal (time-kill curves) (Streptococcus pneumoniae): bactericidal | bacteriostatic or bactericidal (time-kill curves) (E. faecium (15A623)): bacteriostatic | bacteriostatic or bactericidal (time-kill curves) (E. faecium (16D030)): bacteriostatic | bacteriostatic or bactericidal (time-kill curves) (MRSA USA300): bactericidal | bacteriostatic or bactericidal (time-kill curves) (MSSA): bactericidal
